These are literature values, as cited in patent US20240197636A1, “TISSUE-SPECIFIC NUCLEIC ACID DELIVERY BY MIXED CATIONIC LIPID PARTICLES” (OMEGA THERAPEUTICS, INC., priority 2021, published 2024).

By pKa is commonly meant the pH at which an ionisable group is half protonated.

On to `CCCCC/C=C\C/C=C\CCCCCCCCC(CCCCCCCC/C=C\C/C=C\CCCCC)OC(=O)CCCN(C)C` [MC3, (6Z,9Z,28Z,31Z)-heptatriaconta-6,9,28,31-tetraen-19-yl 4-(dimethylamino) butanoate], for which the pKa was 6.4.
